# Measured values taken from paper PMC7206119, “RIP1 inhibition blocks inflammatory diseases but not tumor growth or metastases” (Cell Death and Differentiation, 2019).
# Tests used:
# Experiment in all cases: biochemical
# Set-up in all cases: DiscoverX kinase panel, active-site competition binding (KINOMEscan type), percent of control at one concentration
# Details in all cases: competition binding, percent of control
# HCK = HCK (Homo sapiens, UniProt P08631)
# FLT3(ITD,D835V) = FLT3(ITD,D835V) (Homo sapiens, UniProt P36888, D835V/ITD)
# DMPK = DMPK (Homo sapiens, UniProt Q09013)
# TAOK2 = TAOK2 (Homo sapiens, UniProt Q9UL54)
# HIPK2 = HIPK2 (Homo sapiens, UniProt Q9H2X6)
# PAK4 = PAK4 (Homo sapiens, UniProt O96013)
# AMPK-alpha2 = molecular target: T1, AMPK-alpha2 (Homo sapiens, UniProt P54646)
# T1 construct: gene PRKAA2
# GRK4 = GRK4 (Homo sapiens, UniProt P32298)
# AKT1 = AKT1 (Homo sapiens, UniProt P31749)
# PIK3CA(H1047L) = PIK3CA(H1047L) (Homo sapiens, UniProt P42336, H1047L)
# MAK = MAK (Homo sapiens, UniProt P20794)
# MYLK4 = MYLK4 (Homo sapiens, UniProt Q86YV6)
# VPS34 = molecular target: T2, VPS34 (Homo sapiens, UniProt Q8NEB9)
# T2 construct: gene PIK3C3
# PKAC-alpha = molecular target: T3, PKAC-alpha (Homo sapiens, UniProt P17612)
# T3 construct: gene PRKACA
# PIK3CA = PIK3CA (Homo sapiens, UniProt P42336)
# FLT3(ITD) = FLT3(ITD) (Homo sapiens, UniProt P36888, ITD)
# KIT(D816H) = KIT(D816H) (Homo sapiens, UniProt P10721, D816H)
# [1] = molecular target: T4, ABL1(E255K)-phosphorylated (Homo sapiens, UniProt P00519, E255K)
# T4 construct: phosphorylated
# PRKCI = PRKCI (Homo sapiens, UniProt P41743)
# EGFR(S752-I759del) = EGFR(S752-I759del) (Homo sapiens, UniProt P00533, DEL752-759)
# ADCK3 = molecular target: T5, ADCK3 (Homo sapiens, UniProt Q8NI60)
# T5 construct: gene COQ8A
# Sequence of AKT1 (P31749 whole entry): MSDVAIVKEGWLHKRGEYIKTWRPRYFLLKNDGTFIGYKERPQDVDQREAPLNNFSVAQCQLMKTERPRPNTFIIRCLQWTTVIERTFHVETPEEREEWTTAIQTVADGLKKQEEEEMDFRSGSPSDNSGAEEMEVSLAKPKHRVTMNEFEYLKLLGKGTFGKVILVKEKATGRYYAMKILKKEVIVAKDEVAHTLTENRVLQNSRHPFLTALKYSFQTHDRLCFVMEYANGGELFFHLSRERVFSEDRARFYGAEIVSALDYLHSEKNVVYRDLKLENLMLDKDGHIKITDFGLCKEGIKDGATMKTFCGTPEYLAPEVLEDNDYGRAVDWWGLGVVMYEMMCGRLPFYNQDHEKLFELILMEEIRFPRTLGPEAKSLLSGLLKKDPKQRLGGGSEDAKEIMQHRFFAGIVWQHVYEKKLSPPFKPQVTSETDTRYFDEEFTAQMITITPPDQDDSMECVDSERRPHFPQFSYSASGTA
# Sequence of MAK (P20794 whole entry): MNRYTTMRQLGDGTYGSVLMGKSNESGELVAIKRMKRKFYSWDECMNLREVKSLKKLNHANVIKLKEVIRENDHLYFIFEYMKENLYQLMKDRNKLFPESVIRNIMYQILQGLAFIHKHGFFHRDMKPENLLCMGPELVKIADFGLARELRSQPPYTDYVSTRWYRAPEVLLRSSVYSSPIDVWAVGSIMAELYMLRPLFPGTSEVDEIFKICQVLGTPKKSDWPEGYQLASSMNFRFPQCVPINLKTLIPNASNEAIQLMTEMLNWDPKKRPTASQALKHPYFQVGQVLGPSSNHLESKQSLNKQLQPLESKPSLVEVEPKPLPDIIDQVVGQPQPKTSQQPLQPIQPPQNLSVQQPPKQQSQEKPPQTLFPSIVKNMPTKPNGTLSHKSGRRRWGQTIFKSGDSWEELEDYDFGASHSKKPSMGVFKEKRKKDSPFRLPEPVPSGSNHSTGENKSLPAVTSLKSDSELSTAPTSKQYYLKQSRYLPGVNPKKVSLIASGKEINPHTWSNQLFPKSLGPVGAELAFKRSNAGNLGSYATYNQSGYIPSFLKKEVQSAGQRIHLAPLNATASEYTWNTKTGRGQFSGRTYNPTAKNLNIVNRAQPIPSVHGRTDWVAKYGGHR
# Sequence of PIK3CA (P42336 whole entry): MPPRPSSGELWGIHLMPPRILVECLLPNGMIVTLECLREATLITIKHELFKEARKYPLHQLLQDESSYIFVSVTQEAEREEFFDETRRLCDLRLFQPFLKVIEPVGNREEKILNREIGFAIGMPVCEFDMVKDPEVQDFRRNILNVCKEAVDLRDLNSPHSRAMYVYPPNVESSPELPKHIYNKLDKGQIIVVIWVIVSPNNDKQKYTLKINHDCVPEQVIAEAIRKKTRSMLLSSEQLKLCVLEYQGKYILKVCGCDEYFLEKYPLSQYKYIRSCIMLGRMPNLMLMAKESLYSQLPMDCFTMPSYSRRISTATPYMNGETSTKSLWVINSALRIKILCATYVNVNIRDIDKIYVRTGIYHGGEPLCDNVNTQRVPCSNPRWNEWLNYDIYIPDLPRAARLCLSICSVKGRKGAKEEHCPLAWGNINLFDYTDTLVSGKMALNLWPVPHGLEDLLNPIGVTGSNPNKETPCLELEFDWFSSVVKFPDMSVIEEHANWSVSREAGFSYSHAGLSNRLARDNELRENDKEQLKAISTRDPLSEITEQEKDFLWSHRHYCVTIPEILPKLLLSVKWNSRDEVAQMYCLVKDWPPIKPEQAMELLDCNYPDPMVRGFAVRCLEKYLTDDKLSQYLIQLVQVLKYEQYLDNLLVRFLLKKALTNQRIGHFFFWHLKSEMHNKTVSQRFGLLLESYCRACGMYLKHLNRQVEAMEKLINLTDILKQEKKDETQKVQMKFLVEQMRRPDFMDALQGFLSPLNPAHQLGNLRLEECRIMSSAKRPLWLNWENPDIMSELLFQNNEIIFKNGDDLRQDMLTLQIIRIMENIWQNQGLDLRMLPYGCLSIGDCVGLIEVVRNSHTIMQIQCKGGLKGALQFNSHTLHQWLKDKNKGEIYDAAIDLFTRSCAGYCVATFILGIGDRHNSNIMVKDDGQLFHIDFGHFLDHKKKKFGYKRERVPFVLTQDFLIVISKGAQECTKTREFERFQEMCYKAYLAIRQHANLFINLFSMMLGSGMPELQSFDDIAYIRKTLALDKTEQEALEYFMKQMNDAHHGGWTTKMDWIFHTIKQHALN
# Sequence of TAOK2 (Q9UL54 whole entry): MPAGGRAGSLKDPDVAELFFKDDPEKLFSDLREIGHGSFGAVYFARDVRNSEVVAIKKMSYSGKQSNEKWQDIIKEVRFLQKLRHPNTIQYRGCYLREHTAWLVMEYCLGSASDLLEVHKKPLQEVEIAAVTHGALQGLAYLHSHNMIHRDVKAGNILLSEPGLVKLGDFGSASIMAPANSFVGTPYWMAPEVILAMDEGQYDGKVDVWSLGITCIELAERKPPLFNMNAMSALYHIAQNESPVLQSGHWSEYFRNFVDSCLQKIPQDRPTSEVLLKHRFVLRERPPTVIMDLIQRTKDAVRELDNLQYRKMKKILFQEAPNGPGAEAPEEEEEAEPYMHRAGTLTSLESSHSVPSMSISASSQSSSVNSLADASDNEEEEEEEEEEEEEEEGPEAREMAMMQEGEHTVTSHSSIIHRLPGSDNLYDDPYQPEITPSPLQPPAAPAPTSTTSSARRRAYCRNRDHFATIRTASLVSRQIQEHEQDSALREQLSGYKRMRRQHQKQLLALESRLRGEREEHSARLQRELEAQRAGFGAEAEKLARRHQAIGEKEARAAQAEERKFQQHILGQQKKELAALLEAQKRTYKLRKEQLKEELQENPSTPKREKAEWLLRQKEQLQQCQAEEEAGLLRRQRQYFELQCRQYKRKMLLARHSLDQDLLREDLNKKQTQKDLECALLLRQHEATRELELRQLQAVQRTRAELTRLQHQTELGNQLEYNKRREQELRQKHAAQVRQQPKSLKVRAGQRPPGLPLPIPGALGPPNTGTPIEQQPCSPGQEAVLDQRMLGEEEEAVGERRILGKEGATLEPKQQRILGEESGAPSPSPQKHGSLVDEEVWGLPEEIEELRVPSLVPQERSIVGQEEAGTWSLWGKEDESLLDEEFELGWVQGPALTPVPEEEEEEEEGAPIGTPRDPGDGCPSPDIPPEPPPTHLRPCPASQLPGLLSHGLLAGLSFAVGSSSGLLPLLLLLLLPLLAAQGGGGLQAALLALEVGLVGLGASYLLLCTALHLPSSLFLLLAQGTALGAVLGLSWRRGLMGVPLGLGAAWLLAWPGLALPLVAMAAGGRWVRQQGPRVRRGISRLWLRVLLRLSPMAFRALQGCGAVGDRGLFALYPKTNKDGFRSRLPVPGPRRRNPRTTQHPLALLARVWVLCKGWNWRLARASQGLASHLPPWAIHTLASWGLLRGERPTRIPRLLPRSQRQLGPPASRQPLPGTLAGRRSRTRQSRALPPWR
# T4 sequence (P00519 whole entry E255K): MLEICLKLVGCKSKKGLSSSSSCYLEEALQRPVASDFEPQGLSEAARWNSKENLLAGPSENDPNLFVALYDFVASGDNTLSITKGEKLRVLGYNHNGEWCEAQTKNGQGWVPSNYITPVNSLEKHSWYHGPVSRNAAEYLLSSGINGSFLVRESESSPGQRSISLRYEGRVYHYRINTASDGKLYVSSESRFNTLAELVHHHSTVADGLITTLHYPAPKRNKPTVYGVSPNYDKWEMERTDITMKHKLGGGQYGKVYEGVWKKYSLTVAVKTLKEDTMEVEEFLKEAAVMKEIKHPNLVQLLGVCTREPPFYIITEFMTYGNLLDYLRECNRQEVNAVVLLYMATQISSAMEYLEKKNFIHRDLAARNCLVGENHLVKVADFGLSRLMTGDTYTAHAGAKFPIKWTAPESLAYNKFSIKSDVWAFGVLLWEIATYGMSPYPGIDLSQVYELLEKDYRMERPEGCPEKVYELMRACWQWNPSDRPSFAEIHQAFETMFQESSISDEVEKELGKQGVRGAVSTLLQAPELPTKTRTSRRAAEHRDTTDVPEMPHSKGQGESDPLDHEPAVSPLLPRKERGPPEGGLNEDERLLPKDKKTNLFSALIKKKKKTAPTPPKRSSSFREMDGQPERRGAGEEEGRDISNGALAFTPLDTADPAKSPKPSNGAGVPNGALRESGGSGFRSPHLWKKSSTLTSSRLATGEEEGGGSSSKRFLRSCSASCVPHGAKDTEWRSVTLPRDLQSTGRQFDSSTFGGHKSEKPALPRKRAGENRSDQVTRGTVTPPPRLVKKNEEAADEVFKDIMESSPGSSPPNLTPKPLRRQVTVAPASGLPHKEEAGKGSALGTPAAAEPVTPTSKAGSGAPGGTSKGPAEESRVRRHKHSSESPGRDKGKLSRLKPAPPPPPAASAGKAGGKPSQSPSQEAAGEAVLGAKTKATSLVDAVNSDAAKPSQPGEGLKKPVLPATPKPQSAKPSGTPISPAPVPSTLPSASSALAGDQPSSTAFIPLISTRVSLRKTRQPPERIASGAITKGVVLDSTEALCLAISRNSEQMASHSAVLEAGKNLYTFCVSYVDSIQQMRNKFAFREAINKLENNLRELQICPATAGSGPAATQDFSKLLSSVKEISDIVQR
# T1 sequence (P54646 whole entry): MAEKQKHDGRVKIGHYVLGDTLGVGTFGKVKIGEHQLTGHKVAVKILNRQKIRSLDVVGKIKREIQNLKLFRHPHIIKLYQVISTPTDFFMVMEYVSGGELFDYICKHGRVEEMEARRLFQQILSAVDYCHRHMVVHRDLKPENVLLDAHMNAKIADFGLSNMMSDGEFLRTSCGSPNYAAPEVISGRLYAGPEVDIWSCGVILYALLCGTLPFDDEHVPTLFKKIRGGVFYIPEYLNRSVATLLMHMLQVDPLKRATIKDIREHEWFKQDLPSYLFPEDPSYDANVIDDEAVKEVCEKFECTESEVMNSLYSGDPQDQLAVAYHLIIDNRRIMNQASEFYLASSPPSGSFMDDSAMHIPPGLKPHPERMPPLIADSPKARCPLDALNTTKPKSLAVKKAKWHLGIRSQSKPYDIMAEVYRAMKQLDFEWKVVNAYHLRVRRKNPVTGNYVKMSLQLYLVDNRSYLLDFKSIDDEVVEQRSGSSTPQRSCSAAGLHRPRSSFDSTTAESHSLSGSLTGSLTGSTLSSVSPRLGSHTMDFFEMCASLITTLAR
smiles,measurement,setting,value
"COc1cc2c(cn1)N(C)C(=O)[C@@H](NC(=O)c1nc3n(n1)[C@H](c1ccccc1)CC3)CC2 [GNE684, (S)-N-((S)-7-methoxy-1-methyl-2-oxo-2,3,4,5-tetrahydro-1H-pyrido[3,4-b]azepin-3-yl)-5-phenyl-6,7-dihydro-5H-pyrrolo[1,2-b][1,2,4]triazole-2-carboxamide]",remaining binding at 10 µM,HCK,93%
same,remaining binding at 10 µM,"FLT3(ITD,D835V)",84%
same,remaining binding at 10 µM,DMPK,83%
same,remaining binding at 10 µM,TAOK2,92%
same,remaining binding at 10 µM,HIPK2,82%
same,remaining binding at 10 µM,PAK4,93%
same,remaining binding at 10 µM,AMPK-alpha2,81%
same,remaining binding at 10 µM,GRK4,100%
same,remaining binding at 10 µM,AKT1,74%
same,remaining binding at 10 µM,PIK3CA(H1047L),95%
same,remaining binding at 10 µM,MAK,96%
same,remaining binding at 10 µM,MYLK4,100%
same,remaining binding at 10 µM,VPS34,100%
same,remaining binding at 10 µM,PKAC-alpha,73%
same,remaining binding at 10 µM,PIK3CA,100%
same,remaining binding at 10 µM,FLT3(ITD),100%
same,remaining binding at 10 µM,KIT(D816H),100%
same,remaining binding at 10 µM,[1],91%
same,remaining binding at 10 µM,PRKCI,95%
same,remaining binding at 10 µM,EGFR(S752-I759del),97%
same,remaining binding at 10 µM,ADCK3,98%
